{"source": "patent US20260315436A1", "about": "“METHOD OF TREATING DISORDERS WITH SURF1 MALFUNCTION” (Cure Mito Foundation, priority 2023, published 2026)", "type_in_all_cases": "cell-based, human", "key": {"[1]": {"system": "SURF1-mutant neurons", "experiment": "Neurite outgrowth in SURF1-mutant neurons (MAP2 high-content imaging)", "experimental": "The effect of Sertaconazole in human neurons carrying mutations in the gene SURF1 was measured. Hit compounds were filtered and selected to test their effect on neuronal morphogenesis. CRISPR/Cas9 engineered isogenic SURF1 mutant iPSCs on which neural commitment via overexpression of NGN2 was forced were used.\n(§1) FIG. 28A depicts quantification of total neurite area in SURF1-mutant neurons. Each value represents the total neurite area in each well of a 96-well plate. Significant values were calculated using the non-parametric Mann-Whitney test and defective neurite development in SURF1-mutant cells was found FIG. 28B depicts quantification of total neurite area in SURF I-mutant neurons treated with either the DMSO vehicle or Sertaconazole at different concentrations. Neurite area was measured 5 days after induction of NGN2 overexpression, using high-content image analysis of MAP2-positive stained neuronal cells. Each value represents the total neurite area in each well of a 96-well plate.\nHit compounds were filtered and selected to test their effect on neuronal morphogenesis CRISPR/Cas9 engineered isogenic SURF1 mutant iPSCs on which neural commitment via overexpression of NGN2 was forced were used.\nas §1, with “plate. […]” for “plate. Significant values were calculated using the non-parametric Mann-Whitney test and defective neurite development in SURF1-mutant cells was found”, “in SURF1-mutant” for “in SURF I-mutant”, “plate. […] FIG. 28C depicts representative images of SURF1 mutant neurons treated with either the DMSO vehicle or Sertaconazole.” for “plate.”"}, "[2]": {"system": "SURF1-mutant midbrain organoids", "experiment": "Lactate released in the media by SURF1-mutant midbrain organoids", "conditions": "0.1 μM, 1 week; vs DMSO; Mann-Whitney ****p<0.0001", "experimental": "(§2) The effect of Sertaconazole in brain organoids carrying mutations in the gene SURF1 was measured.\n(§3) FIG. 29A depicts lactate released in the media by SURF1-mutant midbrain organoids compared to isogenic control organoids. There is an aberrant increase of lactate release by SURF1-mutant organoids. FIG. 29B depicts quantification of lactate in the media of SURF1-mutant midbrain organoids that were treated with either DMSO vehicle or 0.1 μM Sertaconazole for 1 week. […] SURF1-mutant midbrain organoids were treated with either the DMSO vehicle or 0.1 μM Sertaconazole for 1 week. […] FIG. 29D depicts representative images of SURF1-mutant midbrain organoids treated with either the DMSO vehicle or Sertaconazole.\nFIG. 29A depicts lactate released in the media by SURF1-mutant midbrain organoids compared to isogenic control organoids. The amount of lactate was quantified using a commercial kit. […] FIG. 29B depicts quantification of lactate in the media of SURF1-mutant midbrain organoids that were treated with either DMSO vehicle or 0.1 μM Sertaconazole for 1 week Media was collected and analyzed for lactate content using a commercial kit. […] SURF1-mutant midbrain organoids were treated with either the DMSO vehicle or 0.1 μM Sertaconazole for 1 week. […] Significant values were calculated using the non-parametric Mann-Whitney test. […]"}, "[3]": {"system": "SURF1-mutant midbrain organoids", "experiment": "Neuronal staining (TH, MAP2, SMI312) in SURF1-mutant midbrain organoids", "experimental": "as §2, §3\nFIG. 29A depicts lactate released in the media by SURF1-mutant midbrain organoids compared to isogenic control organoids. The amount of lactate was quantified using a commercial kit. […] FIG. 29B depicts quantification of lactate in the media of SURF1-mutant midbrain organoids that were treated with either DMSO vehicle or 0.1 μM Sertaconazole for 1 week Media was collected and analyzed for lactate content using a commercial kit. […] SURF1-mutant midbrain organoids were treated with either the DMSO vehicle or 0.1 μM Sertaconazole for 1 week. The organoids were then fixed and stained with antibodies against Tyrosine Hydroxylase (TH) (a marker of dopaminergic neurons), MAP2 (a marker for neuronal dendrites), and SMI312 (a marker for neuronal axons). Significant values were calculated using the non-parametric Mann-Whitney test. […] Sertaconazole can represent an effective repositionable drug for children affected by Leigh syndrome."}, "[4]": {"system": "GM28010 SURF1 mutant fibroblasts", "experiment": "Seahorse mitochondrial stress test, fibroblast cell line GM28010 (Experiment 1, single compounds)", "conditions": "48 h", "experimental": "(§4) In order to evaluate selected compounds' impact on mitochondrial function in patient-derived fibroblasts compared to controls, three seahorse assays were conducted, Exp. 1: Fibroblast cell line GM28010—single compounds; Exp. 2. Fibroblast cell line GM28010—combination of compounds+ Single compounds; and Exp. 3: Fibroblast cell line GM28012—single compounds. Seahorse XF24 Extracellular Flux Analyzers continuously measure oxygen concentration and proton flux in the cell supernatant over time (Wu et al., 2007). The oxygen concentration and proton flux measurements are converted in OCR and ECAR values. This enables a direct quantification of mitochondrial respiration and glycolysis. The aim of the seahorse assays is to evaluate the impact of selected compounds on mitochondrial function in patient-derived fibroblasts compared to controls. Compounds used in the seahorse assays include posacanazole, sertaconazole, glabridin, zinglibroside (ginsenoside Z R1), AM281, cysteamine bitrartate, PF-06447475, losmapimod, telepravir, miltefosine, incyclinide, poziotinib, and methylene blue.\nFibroblast cell line GM28010 is a primary human fibroblast cell line obtained from patients with SURF1 Leigh syndrome. It was purchased from the Coriell Cell Repositories (Camden, NJ, repository number GM28010). Cell line GM00038 was used as a healthy control for GM28010 and is a primary human fibroblast purchased from the Coriell Cell Repositories (Camden, NJ, repository number GM00038).\nFibroblasts were grown in glucose according to recommendation.\nCells were plated in XF96 plates in culture medium and were plated at 10,000 cells/well.\nThe day after plating, cells were treated with the compounds in Table 1. The treatments were completed in glucose medium and galactose medium. The compounds were tested at for 48 hours. The compounds were incubated at (37 C, 5% CO2) until the day of the experiment.\n*Fibroblasts were run at passage numbers: GM28010 SURF1 Fibroblasts P5; GM00038F controls P9.\n• Assay Medium: 10 mM glucose or galactose DMEM supplemented with 2 mM glutamine and 1 mM pyruvate. • Injection Ports for basal glucose: Port A: 2 μM oligomycin; Port B: 2.5 μM FCCP; Port C: 4 μM FCCP; and Port D: 2 μM rotenone and antimycin A.\nData were normalized to cell number per well after the run. The Hoechst-stained nuclei were counted with the Operetta High-Content Imager.\n(§5) • Basal Oxygen Consumption (OCR): This reflects the cellular oxygen usage under basal conditions, encompassing both energy production (ATP turnover) and background oxygen leak from the mitochondria. • Oligomycin Injection: Oligomycin is a compound that inhibits ATP synthase, an enzyme crucial for ATP production within mitochondria. • Oligomycin-resistant Respiration: After oligomycin injection, minimal oxygen consumption persists, representing non-ATP linked oxygen leak from the mitochondria, often termed proton leak. • ATP-linked Respiration: This value is derived by subtracting the oligomycin-resistant respiration from the basal OCR. It signifies the oxygen consumption specifically linked to ATP production through mitochondrial oxidative phosphorylation. • Mitochondrial Bioenergetic Efficiency: This parameter reflects the percentage decrease in oxygen consumption observed after oligomycin injection, indicating the mitochondria's efficiency in utilizing oxygen for ATP generation. • FCCP Injection: FCCP is a chemical that disrupts the link between mitochondrial electron transport and ATP production. • Maximal Respiration: Following FCCP injection, the highest oxygen consumption rate is measured, representing the maximum capacity of the mitochondria to utilize oxygen for respiration. • Spare Respiratory Capacity: This parameter is calculated by subtracting basal respiration from maximal respiration."}, "[5]": {"system": "GM28012 SURF1 fibroblasts", "experiment": "Seahorse mitochondrial stress test, fibroblast cell line GM28012 (Experiment 3, single compounds)", "conditions": "48 h", "experimental": "as §4, §5\nGM28010 primary human fibroblasts obtained from patients with SURF1 Leigh syndrome were purchased from the Coriell Cell Repositories (Camden, N.J.; repository number GM28010).\nGM00038 primary human fibroblasts purchased from the Coriell Cell Repositories (Camden, N.J., repository number GM00038) and were used as a healthy control.\nFibroblasts were grown in glucose according to recommendation. Cells were plated in XF96 plates in culture medium and plated at 10,000 cells/well. The day after plating, the cells were treated with the compounds. The treatments completed in glucose medium and galactose medium. The compounds were tested at for 48 hours. The compounds were incubated at (37 C, 5% CO2) until the day of the experiment. The fibroblasts were run at passage numbers: GM28012 SURF1 Fibroblasts P5.\nThe assay medium was 10 mM glucose or galactose DMEM supplemented with 2 mM glutamine and 1 mM pyruvate. Injection Ports for basal glucose: Port A: 2 μM oligomycin; Port B: 2.5 μM FCCP; Port C: 4 μM FCCP; and Port D: 2 μM rotenone and antimycin A.\nThe data were normalized to cell number per well after the run. The Hoechst-stained nuclei were counted with a Operetta High-Content Imager."}, "[6]": {"conditions": "glucose and galactose conditions"}}, "note": "“Also recorded” adds a separate entry of the source."}
{"smiles": "Clc1ccc(C(Cn2ccnc2)OCc2csc3c(Cl)cccc23)c(Cl)c1", "note": "(stereo not shown) [Sertaconazole, sertaconazole]", "values": [{"measurement": "total neurite area (defective neurite development in SURF1-mutant cells)", "setting": "[1]; 5 days after NGN2 induction, vs DMSO, Mann-Whitney **p<0.01", "result": "correction of defective neurite development"}, {"measurement": "neuromorphogenesis defects in SURF1-mutant neurons", "setting": "[1]; FIG. 28", "result": "ameliorates neuromorphogenesis defects"}, {"measurement": "rescue of neurite outgrowth capacity", "setting": "[1]; NGN2-induced SURF1 mutant neurons, FIG. 28", "result": "dose-dependent rescue of neurite outgrowth capacity"}, {"measurement": "amount of lactate released to the media", "setting": "[2]", "result": "reduced the aberrant release of lactate; also recorded: decreases the aberrant amount of lactate"}, {"measurement": "amount of TH-positive dopaminergic neurons", "setting": "[3]; 0.1 μM, 1 week, vs DMSO", "result": "increased the amount of TH-positive dopaminergic neurons; also recorded: increase in TH neurons was evident but did not reach statistical significance"}, {"measurement": "overall neuronal branching organization", "setting": "[3]; 0.1 μM, 1 week, vs DMSO", "result": "rescued the overall neuronal branching organization"}, {"measurement": "amount of neuronal processes", "setting": "[3]; 0.1 μM, 1 week, vs DMSO, Mann-Whitney *p<0.05", "result": "corrected the increased the amount of neuronal processes"}, {"measurement": "neuromorphogenesis and lactate defects in SURF1-mutant midbrain organoids", "setting": "[3]; FIG. 29", "result": "ameliorates neuromorphogenesis and lactate defects"}, {"measurement": "ATP production", "setting": "[4]", "result": "no effect on ATP production"}, {"measurement": "maximal OCR", "setting": "[4]; all concentrations", "result": "↓ maximal OCR@ all conc;"}, {"measurement": "respiration", "setting": "[4]; [6]", "result": "did not result in major changes"}, {"measurement": "respiration", "setting": "[5]; [6]", "result": "decreased respiration"}, {"measurement": "ATP production through glycolysis", "setting": "[5]; higher concentrations", "result": "increased ATP production through glycolysis; also recorded: lower concentration; ↑ATP"}]}
